Laboratory results published in patent US10799605B2 (3B PHARMACEUTICALS GMBH, priority 2014, dated 2020).
Where two headings read alike, the source gives them in different places.

What was measured:
[1] = target: 5-HT2A (h) (Homo sapiens (Human), UniProt P28223); assay: ExpresSProfile: 5-hydroxytryptamine receptor 2A, antagonist radioligand; assay type: binding; details: Test Concentration 1.0E−05 M
[2] = system: sst (non-selective); assay: ExpresSProfile: somatostatin receptor, agonist radioligand; assay type: binding; details: Test Concentration 1.0E−05 M
[3] = target: D2S (h) (Homo sapiens (Human), UniProt P14416); assay: ExpresSProfile: dopamine receptor 2S, antagonist radioligand; assay type: binding; details: Test Concentration 1.0E−05 M
[4] = target: CXCR2 (IL-8B) (h) (Homo sapiens (Human), UniProt P25025); assay: ExpresSProfile: C-X-C chemokine receptor type 2, agonist radioligand; assay type: binding; details: Test Concentration 1.0E−05 M
[5] = target: beta 2 (h) (Homo sapiens (Human), UniProt P07550); assay: ExpresSProfile: beta2 adrenergic receptor, agonist radioligand; assay type: binding; details: Test Concentration 1.0E−05 M
[6] = target: 5-HT5a (h) (Homo sapiens (Human), UniProt P47898); assay: ExpresSProfile: 5-hydroxytryptamine receptor 5a, agonist radioligand; assay type: binding; details: Test Concentration 1.0E−05 M
[7] = target: mu (MOP) (h) (Homo sapiens (Human), UniProt P35372); assay: ExpresSProfile: mu opioid receptor, agonist radioligand; assay type: binding; details: Test Concentration 1.0E−05 M
[8] = target: 5-HT7 (h) (Homo sapiens (Human), UniProt P34969); assay: ExpresSProfile: 5-hydroxytryptamine receptor 7, agonist radioligand; assay type: binding; details: Test Concentration 1.0E−05 M
[9] = target: Y1 (h) (Homo sapiens (Human), UniProt P25929); assay: ExpresSProfile: neuropeptide Y receptor 1, agonist radioligand; assay type: binding; details: Test Concentration 1.0E−05 M
[10] = system: BZD (central); assay: ExpresSProfile: benzodiazepine, agonist radioligand; assay type: binding; details: Test Concentration 1.0E−05 M
[11] = target: M3 (h) (Homo sapiens (Human), UniProt P20309); assay: ExpresSProfile: muscarinic receptor 3, antagonist radioligand; assay type: binding; details: Test Concentration 1.0E−05 M
[12] = system: Cl-channel (GABA-gated); assay: ExpresSProfile: Cl-channel, antagonist radioligand; assay type: binding; details: Test Concentration 1.0E−05 M
[13] = Plasma stability assay, mouse plasma; assay type: in vitro ADME
Protocol: The plasma stability assay was performed to measure the degradation of compounds of the present invention in plasma. This is an important characteristic of a compound as compounds, with the exception of pro-drugs, which rapidly degrade in plasma generally show poor in vivo efficacy.
The plasma was spiked with a 10 mM analyte solution in dimethyl sulfoxide to a final concentration of 10 μM, vortexed, and aliquotted to 50 μl samples. Two aliquots were stored at −20° C. until further treatment. Another two aliquots were incubated using an Eppendorf Thermomixer at 37° C. for 1, 4, and 24 hours. Sample clean-up was performed using a protein precipitation plate (Phenomenex Strata Impact, 64722-1-324-1) and using acetonitrile as precipitation agent. […] An aliquot of 10 μl was diluted with 90 μl 0.1% aqueous trifluoroacetic acid solution. The determination of the analyte in the clean sample solutions was performed on a Thermo TSQ Quantum Ultra triple quadrupole mass spectrometer equipped with a thermo Surveyor HPLC. The chromatographic separation was carried out on a Phenomenex Kinetex XB-C18 HPLC column (50×2 mm, […] particle size) with gradient elution using a mixture of 0.01% trifluoroacetic acid and 0.05% formic acid in water as eluent A and methanol as eluent B (20% B to 100% in 8 min, 400 μl/min, 40° C.). For mass spectrometric detection the selected reaction monitoring (SRM) was used.
Quantitation was performed by external matrix calibration using an internal standard.

[14] = target: V1a (h) (Homo sapiens (Human), UniProt P37288); assay: ExpresSProfile: V1a, agonist radioligand; assay type: binding; details: Test Concentration 1.0E−05 M
[15] = target: delta 2 (DOP) (h) (Homo sapiens (Human), UniProt P41143); assay: ExpresSProfile: delta2 opioid receptor, agonist radioligand; assay type: binding; details: Test Concentration 1.0E−05 M
[16] = target: AT1 (h) (Homo sapiens (Human), UniProt P30556); assay: ExpresSProfile: angiotensin receptor 1, antagonist radioligand; assay type: binding; details: Test Concentration 1.0E−05 M
[17] = target: B2 (h) (Homo sapiens (Human), UniProt P30411); assay: ExpresSProfile: bradykinin receptor 2, agonist radioligand; assay type: binding; details: Test Concentration 1.0E−05 M
[18] = target: CB1 (h) (Homo sapiens (Human), UniProt P21554); assay: ExpresSProfile: cannabinoid receptor 1, agonist radioligand; assay type: binding; details: Test Concentration 1.0E−05 M
[19] = target: D1 (h) (Homo sapiens (Human), UniProt P21728); assay: ExpresSProfile: dopamine receptor 1, antagonist radioligand; assay type: binding; details: Test Concentration 1.0E−05 M
[20] = target: EP4 (h) (Homo sapiens (Human), UniProt P35408); assay: ExpresSProfile: prostaglandin e receptor type 4, agonist radioligand; assay type: binding; details: Test Concentration 1.0E−05 M
[21] = read-out: % Inhibition of Control Specific Binding
[22] = read-out: % of Control Specific Binding 1st
[23] = read-out: % of Control Specific Binding 2nd
[24] = read-out: % of Control Specific Binding Mean

Sequence of mu (MOP) (h) (P35372 whole entry): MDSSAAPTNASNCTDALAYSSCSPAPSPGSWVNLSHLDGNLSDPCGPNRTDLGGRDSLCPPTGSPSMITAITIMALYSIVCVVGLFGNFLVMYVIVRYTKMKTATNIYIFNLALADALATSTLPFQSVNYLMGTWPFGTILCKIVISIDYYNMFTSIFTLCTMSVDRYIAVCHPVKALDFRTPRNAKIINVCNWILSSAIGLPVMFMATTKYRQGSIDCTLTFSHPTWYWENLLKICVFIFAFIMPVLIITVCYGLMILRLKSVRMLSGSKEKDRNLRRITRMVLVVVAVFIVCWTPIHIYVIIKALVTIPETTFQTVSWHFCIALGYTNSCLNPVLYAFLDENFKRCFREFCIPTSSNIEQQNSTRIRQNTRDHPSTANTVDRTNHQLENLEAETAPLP
Sequence of CB1 (h) (P21554 whole entry): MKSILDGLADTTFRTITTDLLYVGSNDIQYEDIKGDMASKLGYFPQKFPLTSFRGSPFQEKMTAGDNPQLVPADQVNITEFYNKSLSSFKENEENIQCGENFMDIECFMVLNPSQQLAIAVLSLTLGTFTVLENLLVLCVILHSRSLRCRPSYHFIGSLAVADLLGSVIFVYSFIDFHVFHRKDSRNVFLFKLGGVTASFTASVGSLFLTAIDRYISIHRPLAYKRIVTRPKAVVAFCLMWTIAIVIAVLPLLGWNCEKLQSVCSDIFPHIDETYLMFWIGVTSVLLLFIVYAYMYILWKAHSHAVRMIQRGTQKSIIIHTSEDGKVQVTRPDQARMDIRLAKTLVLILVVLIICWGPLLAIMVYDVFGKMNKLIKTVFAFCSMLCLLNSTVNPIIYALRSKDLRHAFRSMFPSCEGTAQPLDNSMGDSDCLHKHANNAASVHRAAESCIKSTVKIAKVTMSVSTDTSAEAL
Sequence of B2 (h) (P30411 whole entry): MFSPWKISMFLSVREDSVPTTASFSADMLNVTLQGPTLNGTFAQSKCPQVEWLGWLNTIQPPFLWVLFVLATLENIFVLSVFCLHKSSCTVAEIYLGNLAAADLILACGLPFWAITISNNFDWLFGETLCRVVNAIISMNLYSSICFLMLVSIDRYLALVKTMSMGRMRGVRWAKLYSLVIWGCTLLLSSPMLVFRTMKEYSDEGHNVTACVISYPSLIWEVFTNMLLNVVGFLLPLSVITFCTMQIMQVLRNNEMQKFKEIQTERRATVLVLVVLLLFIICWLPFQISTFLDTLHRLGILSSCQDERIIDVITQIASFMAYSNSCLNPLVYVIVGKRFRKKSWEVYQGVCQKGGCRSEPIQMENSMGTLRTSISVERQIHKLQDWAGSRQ
Sequence of 5-HT7 (h) (P34969 whole entry): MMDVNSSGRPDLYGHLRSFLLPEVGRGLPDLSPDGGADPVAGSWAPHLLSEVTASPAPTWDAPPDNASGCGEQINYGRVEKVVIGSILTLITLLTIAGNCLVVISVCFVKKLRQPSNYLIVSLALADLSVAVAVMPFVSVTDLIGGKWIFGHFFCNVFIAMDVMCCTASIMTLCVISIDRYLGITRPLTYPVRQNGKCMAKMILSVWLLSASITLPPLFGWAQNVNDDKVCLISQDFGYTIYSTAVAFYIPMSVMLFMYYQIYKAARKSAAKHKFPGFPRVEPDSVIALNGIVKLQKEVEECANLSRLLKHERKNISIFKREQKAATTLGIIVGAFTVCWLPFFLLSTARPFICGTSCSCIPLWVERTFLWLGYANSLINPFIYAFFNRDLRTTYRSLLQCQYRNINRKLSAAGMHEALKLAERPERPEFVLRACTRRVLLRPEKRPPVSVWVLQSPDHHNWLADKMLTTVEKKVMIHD
Sequence of CXCR2 (IL-8B) (h) (P25025 whole entry): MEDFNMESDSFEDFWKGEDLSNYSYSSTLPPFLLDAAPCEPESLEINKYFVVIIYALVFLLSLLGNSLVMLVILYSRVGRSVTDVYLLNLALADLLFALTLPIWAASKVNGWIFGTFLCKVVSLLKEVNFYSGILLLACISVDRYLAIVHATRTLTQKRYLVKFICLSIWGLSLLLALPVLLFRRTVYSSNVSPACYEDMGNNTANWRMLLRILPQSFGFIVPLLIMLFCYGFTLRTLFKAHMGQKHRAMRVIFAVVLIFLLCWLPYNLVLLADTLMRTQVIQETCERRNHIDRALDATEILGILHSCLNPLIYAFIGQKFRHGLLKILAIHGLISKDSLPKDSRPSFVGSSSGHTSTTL
Sequence of 5-HT5a (h) (P47898 whole entry): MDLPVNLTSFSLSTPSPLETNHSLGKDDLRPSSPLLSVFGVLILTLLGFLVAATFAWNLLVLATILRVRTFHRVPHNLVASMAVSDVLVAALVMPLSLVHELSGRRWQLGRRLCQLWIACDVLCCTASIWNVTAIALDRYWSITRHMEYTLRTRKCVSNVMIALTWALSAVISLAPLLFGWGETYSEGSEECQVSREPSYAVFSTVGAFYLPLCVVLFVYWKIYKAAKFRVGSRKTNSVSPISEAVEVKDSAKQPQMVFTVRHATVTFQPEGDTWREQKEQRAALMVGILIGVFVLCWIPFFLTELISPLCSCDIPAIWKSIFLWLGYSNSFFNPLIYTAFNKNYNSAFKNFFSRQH
Sequence of D2S (h) (P14416 other isoform, or with tags, fused parts or gaps): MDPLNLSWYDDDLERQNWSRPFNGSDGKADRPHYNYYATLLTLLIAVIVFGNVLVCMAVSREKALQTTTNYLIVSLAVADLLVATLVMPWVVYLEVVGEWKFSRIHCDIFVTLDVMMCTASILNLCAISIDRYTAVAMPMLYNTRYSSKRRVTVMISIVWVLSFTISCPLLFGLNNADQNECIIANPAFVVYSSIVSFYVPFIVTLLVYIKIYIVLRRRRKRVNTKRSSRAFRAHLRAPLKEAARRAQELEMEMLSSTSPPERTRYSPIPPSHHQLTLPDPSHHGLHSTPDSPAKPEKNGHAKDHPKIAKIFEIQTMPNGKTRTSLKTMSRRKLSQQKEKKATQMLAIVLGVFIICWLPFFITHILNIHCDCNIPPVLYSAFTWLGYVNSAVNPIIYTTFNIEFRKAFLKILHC
Sequence of Y1 (h) (P25929 whole entry): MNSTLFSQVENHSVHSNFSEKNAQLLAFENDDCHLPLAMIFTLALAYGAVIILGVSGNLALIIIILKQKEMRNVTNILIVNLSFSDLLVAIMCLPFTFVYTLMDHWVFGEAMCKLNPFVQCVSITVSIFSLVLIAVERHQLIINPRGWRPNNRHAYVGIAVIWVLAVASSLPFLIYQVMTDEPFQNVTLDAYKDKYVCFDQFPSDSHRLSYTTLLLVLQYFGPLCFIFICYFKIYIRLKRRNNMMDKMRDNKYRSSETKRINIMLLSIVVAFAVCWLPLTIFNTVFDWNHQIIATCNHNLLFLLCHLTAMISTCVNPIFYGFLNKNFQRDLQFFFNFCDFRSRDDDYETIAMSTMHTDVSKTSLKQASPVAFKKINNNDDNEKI
Sequence of EP4 (h) (P35408 whole entry): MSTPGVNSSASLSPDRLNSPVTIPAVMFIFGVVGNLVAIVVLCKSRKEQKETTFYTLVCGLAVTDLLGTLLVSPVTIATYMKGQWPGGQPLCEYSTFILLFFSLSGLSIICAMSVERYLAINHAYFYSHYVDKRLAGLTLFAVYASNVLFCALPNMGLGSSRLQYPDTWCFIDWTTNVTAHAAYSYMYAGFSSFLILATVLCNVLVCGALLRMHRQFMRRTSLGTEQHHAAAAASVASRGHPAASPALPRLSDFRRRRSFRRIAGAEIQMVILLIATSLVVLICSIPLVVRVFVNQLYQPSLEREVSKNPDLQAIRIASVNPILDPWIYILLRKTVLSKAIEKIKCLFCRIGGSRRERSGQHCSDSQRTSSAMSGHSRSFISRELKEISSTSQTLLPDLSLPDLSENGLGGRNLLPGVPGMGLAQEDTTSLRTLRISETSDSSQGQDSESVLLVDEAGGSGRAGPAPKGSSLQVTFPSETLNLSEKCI
Sequence of D1 (h) (P21728 whole entry): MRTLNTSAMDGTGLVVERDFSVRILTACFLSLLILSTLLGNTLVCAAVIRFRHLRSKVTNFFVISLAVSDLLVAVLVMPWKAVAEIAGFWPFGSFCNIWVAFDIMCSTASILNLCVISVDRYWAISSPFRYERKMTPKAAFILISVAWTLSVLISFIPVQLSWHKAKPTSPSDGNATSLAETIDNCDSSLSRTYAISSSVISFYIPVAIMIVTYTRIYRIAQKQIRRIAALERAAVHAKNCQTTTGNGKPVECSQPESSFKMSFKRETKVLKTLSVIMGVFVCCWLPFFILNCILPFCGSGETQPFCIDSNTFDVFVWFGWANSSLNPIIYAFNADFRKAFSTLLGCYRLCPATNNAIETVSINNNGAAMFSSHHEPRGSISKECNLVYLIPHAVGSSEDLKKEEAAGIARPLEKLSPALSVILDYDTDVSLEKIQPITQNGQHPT
Sequence of beta 2 (h) (P07550 whole entry): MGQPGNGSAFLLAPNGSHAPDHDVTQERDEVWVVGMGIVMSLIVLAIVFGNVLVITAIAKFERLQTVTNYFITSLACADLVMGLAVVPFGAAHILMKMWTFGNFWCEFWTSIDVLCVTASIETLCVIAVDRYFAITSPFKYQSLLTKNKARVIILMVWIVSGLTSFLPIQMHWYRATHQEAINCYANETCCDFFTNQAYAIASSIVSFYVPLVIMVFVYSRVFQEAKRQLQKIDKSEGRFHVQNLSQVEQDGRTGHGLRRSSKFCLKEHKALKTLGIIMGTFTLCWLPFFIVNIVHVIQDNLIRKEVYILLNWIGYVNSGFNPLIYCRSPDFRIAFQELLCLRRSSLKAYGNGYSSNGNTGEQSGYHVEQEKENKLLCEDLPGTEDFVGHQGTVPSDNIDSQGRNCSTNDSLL

COc1cccc(OC)c1-c1cc(C(=O)NC2(C(=O)O)C3CC4CC(C3)CC2C4)nn1-c1ccc(C(=O)N(C)CCCN(C)CCCN(C)C(=O)CN2CCN(CC(=O)O)CCN(CC(=O)O)CCN(CC(=O)O)CC2)cc1C(C)C (stereo not drawn) [(IIIa), 2-{[1-{4-[(3-{[3-(DOTA-methyl-amino)-propyl]-methyl-amino}-propyl)-methyl-carbamoyl]-2-isopropyl-phenyl}-5-(2,6-dimethoxy-phenyl)-1H-pyrazole-3-carbonyl]-amino}-adamantane-2-carboxylic acid]
inhibition at 10 µM [1, 21]: -2% | remaining activity at 10 µM [1, 22]: 101% | remaining activity at 10 µM [1, 23]: 103% | remaining activity at 10 µM [1, 24]: 102% | % Inhibition of Control Specific Binding [2]: −11% | % of Control Specific Binding 1st [2]: 111.6% | % of Control Specific Binding 2nd [2]: 110.0% | % of Control Specific Binding Mean [2]: 110.8% | inhibition at 10 µM [3, 21]: -9% | remaining activity at 10 µM [3, 22]: 113% | remaining activity at 10 µM [3, 23]: 105% | remaining activity at 10 µM [3, 24]: 109% | inhibition at 10 µM [4, 21]: -9% | remaining activity at 10 µM [4, 22]: 119% | remaining activity at 10 µM [4, 23]: 99.6% | remaining activity at 10 µM [4, 24]: 109% | inhibition at 10 µM [5, 21]: -2% | remaining activity at 10 µM [5, 22]: 107% | remaining activity at 10 µM [5, 23]: 96.5% | remaining activity at 10 µM [5, 24]: 102% | inhibition at 10 µM [6, 21]: -2% | remaining activity at 10 µM [6, 22]: 109% | remaining activity at 10 µM [6, 23]: 95.2% | remaining activity at 10 µM [6, 24]: 102% | inhibition at 10 µM [7, 21]: 0% | remaining activity at 10 µM [7, 22]: 108% | remaining activity at 10 µM [7, 23]: 92.6% | remaining activity at 10 µM [7, 24]: 100% | inhibition at 10 µM [8, 21]: 2% | remaining activity at 10 µM [8, 22]: 96.6% | remaining activity at 10 µM [8, 23]: 99.7% | remaining activity at 10 µM [8, 24]: 98.2% | inhibition at 10 µM [9, 21]: -34% | remaining activity at 10 µM [9, 22]: 128% | remaining activity at 10 µM [9, 23]: 141% | remaining activity at 10 µM [9, 24]: 134% | % Inhibition of Control Specific Binding [10]: −16% | % of Control Specific Binding 1st [10]: 109.4% | % of Control Specific Binding 2nd [10]: 122.6% | % of Control Specific Binding Mean [10]: 116.0% | inhibition at 10 µM [11, 21]: -23% | remaining activity at 10 µM [11, 22]: 122% | remaining activity at 10 µM [11, 23]: 124% | remaining activity at 10 µM [11, 24]: 124% | % Inhibition of Control Specific Binding [12]: 2% | % of Control Specific Binding 1st [12]: 106.5% | % of Control Specific Binding 2nd [12]: 89.1% | % of Control Specific Binding Mean [12]: 97.8% | stability in mouse plasma [13]: highly stable | % remaining after 24 h incubation, Mouse plasma ([13]; 10 μM, 37° C., 24 h): >80% | inhibition at 10 µM [14, 21]: 6% | remaining activity at 10 µM [14, 22]: 94.1% | remaining activity at 10 µM [14, 23]: 93% | remaining activity at 10 µM [14, 24]: 93.5% | inhibition at 10 µM [15, 21]: -6% | remaining activity at 10 µM [15, 22]: 107% | remaining activity at 10 µM [15, 23]: 105% | remaining activity at 10 µM [15, 24]: 106% | inhibition at 10 µM [16, 21]: -18% | remaining activity at 10 µM [16, 22]: 119% | remaining activity at 10 µM [16, 23]: 117% | remaining activity at 10 µM [16, 24]: 118% | inhibition at 10 µM [17, 21]: 11% | remaining activity at 10 µM [17, 22]: 98.7% | remaining activity at 10 µM [17, 23]: 79.9% | remaining activity at 10 µM [17, 24]: 89.3% | inhibition at 10 µM [18, 21]: 11% | remaining activity at 10 µM [18, 22]: 96% | remaining activity at 10 µM [18, 23]: 82.5% | remaining activity at 10 µM [18, 24]: 89.3% | inhibition at 10 µM [19, 21]: -5% | remaining activity at 10 µM [19, 22]: 114% | remaining activity at 10 µM [19, 23]: 96.3% | remaining activity at 10 µM [19, 24]: 105% | inhibition at 10 µM [20, 21]: 8% | remaining activity at 10 µM [20, 22]: 89.2% | remaining activity at 10 µM [20, 23]: 95.5% | remaining activity at 10 µM [20, 24]: 92.3%
